According to US12674026B2, “Process for preparing polyol-based esters of acyl-capped hydroxy carboxylic acids” (KetoLipix Therapeutics GmbH, priority 2019, dated 2026):

What was measured:
pancreatin = tested on: pancreatin
Experimental: Both media are from the company Biorelevant®, Ltd. in Great Britain. In addition, in some experiments porcine pancreas is added (Panzytrat® 40,000, Fa. Allergan).
The pancreatin is used in the form of the commercially available product Panzytrat® 40,000 from the Allergan company. The whole mixture is stirred on a hotplate at 50° C.; the course of the reaction is determined and followed by continuous recording of the acid number over time.

[1] = even if several grams are taken; cited from earlier work

| Compound | cleavage by pancreatin (pancreatin) | duration of ketosis [1] |
| --- | --- | --- |
| 3-acetylacetobutyric acid di-diglycerol ester [3-acetylaceto-BHB di-diglycerol ester] | cleaved by pancreatin | – |
| 3-acetylacetobutyric acid mono-diglycerol ester [3-acetylaceto-BHB mono-diglycerol ester] | cleaved by pancreatin | – |
| 3-acetylacetobutyric acid tri-diglycerol ester [3-acetylaceto-BHB tri-diglycerol ester] | cleaved by pancreatin | – |
| CC(O)CC(=O)O (stereo not shown) [3-hydroxybutyric acid] | – | three to four |
